Reference: ChEMBL document CHEMBL4715755, “Isothiouronium modification empowers pyrimidine-substituted curcumin analogs potent cytotoxicity and Golgi localization” (Eur J Med Chem, 2016)
Calls of active or inactive are those of the source. No cut-off for these calls is given here.

Tested on: HT-29
Test: Cytotoxicity against human HT-29 cells assessed as reduction in cell viability incubated for 48 hrs by resazurin reagent based fluorescence assay
Format: functional
Settings: HT-29, 48 h

Structure (SMILES) | IC50 [µM]
N=C(N)SCCCCCCOc1nc(/C=C/c2ccccc2)cc(/C=C/c2ccccc2)n1 | 2.89
N=C(N)SCCCCCOc1nc(/C=C/c2ccccc2)cc(/C=C/c2ccccc2)n1 | 2.82
COc1cc(/C=C/c2cc(/C=C/c3cc(OC)c(OC)c(OC)c3)nc(OCCCCCCBr)n2)cc(OC)c1OC | > 20
COc1ccc(/C=C/c2cc(/C=C/c3ccc(OC)cc3)nc(OCCCCSC(N(C)C)=[N+](C)C)n2)cc1.[Br-] | 5.97
COc1ccc(/C=C/c2cc(/C=C/c3ccc(OC)c(OC)c3)nc(OCCCCCCSC(=N)N)n2)cc1OC | 1.72
BrCCCCCOc1nc(/C=C/c2ccccc2)cc(/C=C/c2ccccc2)n1 | > 20
COc1cc(/C=C/c2cc(/C=C/c3cc(OC)c(OC)c(OC)c3)nc(OCCCCCBr)n2)cc(OC)c1OC | > 20
BrCCCCCCOc1nc(/C=C/c2ccccc2)cc(/C=C/c2ccccc2)n1 | > 20
Br.COc1ccc(/C=C/c2cc(/C=C/c3ccc(OC)c(OC)c3)nc(OCCCCSC(=N)N)n2)cc1OC | 0.61
COc1ccc(/C=C/c2cc(/C=C/c3ccc(OC)cc3)nc(OCCCCCCBr)n2)cc1 | > 20
Br.COc1ccc(/C=C/c2cc(/C=C/c3ccc(OC)cc3)nc(OCCCCCSC(=N)N)n2)cc1 | 2.03
COc1cc(/C=C/c2cc(/C=C/c3cc(OC)c(OC)c(OC)c3)nc(OCCCCSC(N(C)C)=[N+](C)C)n2)cc(OC)c1OC | 10.5

Tested on: HCT-116
Test: Cytotoxicity against human HCT-116 cells assessed as reduction in cell viability incubated for 48 hrs by resazurin reagent based fluorescence assay
Format: functional
Settings: HCT-116, 48 h

Structure (SMILES) | IC50 [µM]
N=C(N)SCCCCCCOc1nc(/C=C/c2ccccc2)cc(/C=C/c2ccccc2)n1 | 2.3
N=C(N)SCCCCCOc1nc(/C=C/c2ccccc2)cc(/C=C/c2ccccc2)n1 | 2.39
COc1cc(/C=C/c2cc(/C=C/c3cc(OC)c(OC)c(OC)c3)nc(OCCCCCCBr)n2)cc(OC)c1OC | > 20
COc1ccc(/C=C/c2cc(/C=C/c3ccc(OC)cc3)nc(OCCCCSC(N(C)C)=[N+](C)C)n2)cc1.[Br-] | 3
COc1ccc(/C=C/c2cc(/C=C/c3ccc(OC)c(OC)c3)nc(OCCCCCCSC(=N)N)n2)cc1OC | 2.02
BrCCCCCOc1nc(/C=C/c2ccccc2)cc(/C=C/c2ccccc2)n1 | > 20
COc1cc(/C=C/c2cc(/C=C/c3cc(OC)c(OC)c(OC)c3)nc(OCCCCCBr)n2)cc(OC)c1OC | > 20
BrCCCCCCOc1nc(/C=C/c2ccccc2)cc(/C=C/c2ccccc2)n1 | > 20
Br.COc1ccc(/C=C/c2cc(/C=C/c3ccc(OC)c(OC)c3)nc(OCCCCSC(=N)N)n2)cc1OC | 1.86
COc1ccc(/C=C/c2cc(/C=C/c3ccc(OC)cc3)nc(OCCCCCCBr)n2)cc1 | > 20
Br.COc1ccc(/C=C/c2cc(/C=C/c3ccc(OC)cc3)nc(OCCCCCSC(=N)N)n2)cc1 | 1.93
COc1cc(/C=C/c2cc(/C=C/c3cc(OC)c(OC)c(OC)c3)nc(OCCCCSC(N(C)C)=[N+](C)C)n2)cc(OC)c1OC | 5.41

Tested on: NCI-H1299
Test: Cytotoxicity against human NCI-H1299 cells assessed as reduction in cell viability incubated for 48 hrs by resazurin reagent based fluorescence assay
Format: functional
Settings: NCI-H1299, 48 h

Structure (SMILES) | IC50 [µM]
N=C(N)SCCCCCCOc1nc(/C=C/c2ccccc2)cc(/C=C/c2ccccc2)n1 | 6.4
N=C(N)SCCCCCOc1nc(/C=C/c2ccccc2)cc(/C=C/c2ccccc2)n1 | 7.09
COc1cc(/C=C/c2cc(/C=C/c3cc(OC)c(OC)c(OC)c3)nc(OCCCCCCBr)n2)cc(OC)c1OC | > 20
COc1ccc(/C=C/c2cc(/C=C/c3ccc(OC)cc3)nc(OCCCCSC(N(C)C)=[N+](C)C)n2)cc1.[Br-] | 7.49
COc1ccc(/C=C/c2cc(/C=C/c3ccc(OC)c(OC)c3)nc(OCCCCCCSC(=N)N)n2)cc1OC | 3.75
BrCCCCCOc1nc(/C=C/c2ccccc2)cc(/C=C/c2ccccc2)n1 | > 20
COc1cc(/C=C/c2cc(/C=C/c3cc(OC)c(OC)c(OC)c3)nc(OCCCCCBr)n2)cc(OC)c1OC | > 20
BrCCCCCCOc1nc(/C=C/c2ccccc2)cc(/C=C/c2ccccc2)n1 | > 20
Br.COc1ccc(/C=C/c2cc(/C=C/c3ccc(OC)c(OC)c3)nc(OCCCCSC(=N)N)n2)cc1OC | 1.53
COc1ccc(/C=C/c2cc(/C=C/c3ccc(OC)cc3)nc(OCCCCCCBr)n2)cc1 | > 20
Br.COc1ccc(/C=C/c2cc(/C=C/c3ccc(OC)cc3)nc(OCCCCCSC(=N)N)n2)cc1 | 2.96
COc1cc(/C=C/c2cc(/C=C/c3cc(OC)c(OC)c(OC)c3)nc(OCCCCSC(N(C)C)=[N+](C)C)n2)cc(OC)c1OC | 15

Tested on: A549
Test: Cytotoxicity against human A549 cells assessed as reduction in cell viability incubated for 48 hrs by resazurin reagent based fluorescence assay
Format: functional
Settings: A549, 48 h

Structure (SMILES) | IC50 [µM]
N=C(N)SCCCCCCOc1nc(/C=C/c2ccccc2)cc(/C=C/c2ccccc2)n1 | 3.98
N=C(N)SCCCCCOc1nc(/C=C/c2ccccc2)cc(/C=C/c2ccccc2)n1 | 4.11
COc1cc(/C=C/c2cc(/C=C/c3cc(OC)c(OC)c(OC)c3)nc(OCCCCCCBr)n2)cc(OC)c1OC | > 20
COc1ccc(/C=C/c2cc(/C=C/c3ccc(OC)cc3)nc(OCCCCSC(N(C)C)=[N+](C)C)n2)cc1.[Br-] | 2.26
COc1ccc(/C=C/c2cc(/C=C/c3ccc(OC)c(OC)c3)nc(OCCCCCCSC(=N)N)n2)cc1OC | 2.09
BrCCCCCOc1nc(/C=C/c2ccccc2)cc(/C=C/c2ccccc2)n1 | > 20
COc1cc(/C=C/c2cc(/C=C/c3cc(OC)c(OC)c(OC)c3)nc(OCCCCCBr)n2)cc(OC)c1OC | > 20
BrCCCCCCOc1nc(/C=C/c2ccccc2)cc(/C=C/c2ccccc2)n1 | > 20
Br.COc1ccc(/C=C/c2cc(/C=C/c3ccc(OC)c(OC)c3)nc(OCCCCSC(=N)N)n2)cc1OC | 2.36
COc1ccc(/C=C/c2cc(/C=C/c3ccc(OC)cc3)nc(OCCCCCCBr)n2)cc1 | > 20
Br.COc1ccc(/C=C/c2cc(/C=C/c3ccc(OC)cc3)nc(OCCCCCSC(=N)N)n2)cc1 | 1.97
COc1cc(/C=C/c2cc(/C=C/c3cc(OC)c(OC)c(OC)c3)nc(OCCCCSC(N(C)C)=[N+](C)C)n2)cc(OC)c1OC | 14.4

Tested on: not listed separately
Test: Drug localization in golgi bodies of human HCT-116 cells at 10 uM measured upto 12 hrs by Golgin-97 and DAPI staining based laser scanning confocal microscopic analysis
Format: ADME, subcellular, Golgi body
Settings: hct-116, 12 h

Structure (SMILES) | Drug uptake
COc1ccc(/C=C/c2cc(/C=C/c3ccc(OC)cc3)nc(OCCCCSC(N(C)C)=[N+](C)C)n2)cc1.[Br-] | Not Active
Br.COc1ccc(/C=C/c2cc(/C=C/c3ccc(OC)cc3)nc(OCCCCCSC(=N)N)n2)cc1 | Active

Tested on: not listed separately
Test: Drug localization in golgi bodies of human A549 cells at 10 uM measured upto 12 hrs by Golgin-97 and DAPI staining based laser scanning confocal microscopic analysis
Format: ADME, subcellular, Golgi body
Settings: a549, 12 h

Structure (SMILES) | Drug uptake
COc1ccc(/C=C/c2cc(/C=C/c3ccc(OC)cc3)nc(OCCCCSC(N(C)C)=[N+](C)C)n2)cc1.[Br-] | Not Active
Br.COc1ccc(/C=C/c2cc(/C=C/c3ccc(OC)cc3)nc(OCCCCCSC(=N)N)n2)cc1 | Active

Tested on: CHO-K1
Test: Cytotoxicity against CHO-K1 cells assessed as reduction in cell viability at 10 uM incubated for 48 hrs by resazurin reagent based fluorescence assay
Set-up: species or system Cricetulus griseus
Settings: chinese hamster, cho-k1, 48 h

Structure (SMILES) | Activity
COc1ccc(/C=C/c2cc(/C=C/c3ccc(OC)cc3)nc(OCCCCSC(N(C)C)=[N+](C)C)n2)cc1.[Br-] | Non-Toxic
Br.COc1ccc(/C=C/c2cc(/C=C/c3ccc(OC)c(OC)c3)nc(OCCCCSC(=N)N)n2)cc1OC | Toxic

Tested on: not listed separately
Test: Cytotoxicity against GAG-deficient CHO-745 cells assessed as reduction in cell viability at 10 uM incubated for 48 hrs by resazurin reagent based fluorescence assay
Set-up: species or system Cricetulus griseus
Settings: chinese hamster, cho-745, 48 h

Structure (SMILES) | Activity
COc1ccc(/C=C/c2cc(/C=C/c3ccc(OC)cc3)nc(OCCCCSC(N(C)C)=[N+](C)C)n2)cc1.[Br-] | Non-Toxic
Br.COc1ccc(/C=C/c2cc(/C=C/c3ccc(OC)c(OC)c3)nc(OCCCCSC(=N)N)n2)cc1OC | Toxic

Tested on: not listed separately
Test: Cytotoxicity against heparan sulfate-deficient CHO-677 cells assessed as reduction in cell viability at 10 uM incubated for 48 hrs by resazurin reagent based fluorescence assay
Set-up: species or system Cricetulus griseus
Settings: chinese hamster, cho-677, 48 h

Structure (SMILES) | Activity
COc1ccc(/C=C/c2cc(/C=C/c3ccc(OC)cc3)nc(OCCCCSC(N(C)C)=[N+](C)C)n2)cc1.[Br-] | Non-Toxic
Br.COc1ccc(/C=C/c2cc(/C=C/c3ccc(OC)c(OC)c3)nc(OCCCCSC(=N)N)n2)cc1OC | Toxic

Tested on: CHO
Test: Cytotoxicity against CHO cells overexpressing 3-O-sulfotransferase 1 assessed as reduction in cell viability at 10 uM incubated for 48 hrs by resazurin reagent based fluorescence assay
Set-up: species or system Cricetulus griseus
Settings: chinese hamster

Structure (SMILES) | Activity
COc1ccc(/C=C/c2cc(/C=C/c3ccc(OC)cc3)nc(OCCCCSC(N(C)C)=[N+](C)C)n2)cc1.[Br-] | Non-Toxic
Br.COc1ccc(/C=C/c2cc(/C=C/c3ccc(OC)c(OC)c3)nc(OCCCCSC(=N)N)n2)cc1OC | Toxic

Tested on: CHO
Test: Cytotoxicity against CHO cells overexpressing 3-O-sulfotransferase 2 assessed as reduction in cell viability at 10 uM incubated for 48 hrs by resazurin reagent based fluorescence assay
Set-up: species or system Cricetulus griseus
Settings: chinese hamster

Structure (SMILES) | Activity
COc1ccc(/C=C/c2cc(/C=C/c3ccc(OC)cc3)nc(OCCCCSC(N(C)C)=[N+](C)C)n2)cc1.[Br-] | Non-Toxic
Br.COc1ccc(/C=C/c2cc(/C=C/c3ccc(OC)c(OC)c3)nc(OCCCCSC(=N)N)n2)cc1OC | Toxic

Tested on: CHO
Test: Cytotoxicity against CHO cells overexpressing 3-O-sulfotransferase 3 assessed as reduction in cell viability at 10 uM incubated for 48 hrs by resazurin reagent based fluorescence assay
Set-up: species or system Cricetulus griseus
Settings: chinese hamster

Structure (SMILES) | Activity
COc1ccc(/C=C/c2cc(/C=C/c3ccc(OC)cc3)nc(OCCCCSC(N(C)C)=[N+](C)C)n2)cc1.[Br-] | Non-Toxic
Br.COc1ccc(/C=C/c2cc(/C=C/c3ccc(OC)c(OC)c3)nc(OCCCCSC(=N)N)n2)cc1OC | Toxic

Tested on: CHO
Test: Cytotoxicity against CHO cells overexpressing 3-O-sulfotransferase 4 assessed as reduction in cell viability at 10 uM incubated for 48 hrs by resazurin reagent based fluorescence assay
Set-up: species or system Cricetulus griseus
Settings: chinese hamster

Structure (SMILES) | Activity
COc1ccc(/C=C/c2cc(/C=C/c3ccc(OC)cc3)nc(OCCCCSC(N(C)C)=[N+](C)C)n2)cc1.[Br-] | Non-Toxic
Br.COc1ccc(/C=C/c2cc(/C=C/c3ccc(OC)c(OC)c3)nc(OCCCCSC(=N)N)n2)cc1OC | Toxic

Tested on: A549
Test: Cytotoxicity against human A549 cells assessed as reduction in cell viability at 10 uM incubated for 48 hrs by resazurin reagent based fluorescence assay
Format: functional
Settings: not given

Structure (SMILES) | Activity
COc1ccc(/C=C/c2cc(/C=C/c3ccc(OC)cc3)nc(OCCCCSC(N(C)C)=[N+](C)C)n2)cc1.[Br-] | Active
Br.COc1ccc(/C=C/c2cc(/C=C/c3ccc(OC)c(OC)c3)nc(OCCCCSC(=N)N)n2)cc1OC | Active

Tested on: not listed separately
Test: Drug localization in golgi vesicles of human A549 cells at 10 uM incubated for 4 hrs by Golgin-97 and DAPI staining based laser scanning confocal microscopic analysis
Format: ADME, subcellular, Golgi body
Settings: a549, 4 h

Structure (SMILES) | Drug uptake
Br.COc1ccc(/C=C/c2cc(/C=C/c3ccc(OC)cc3)nc(OCCCCCSC(=N)N)n2)cc1 | Active
